Data taken from US7166706B2 (priority 2001, dated 2007).
Like-named read-outs stand apart in the source and are kept apart here.

What was measured:
[1] = tested on: all the sensitive fungal species; format: cell-based
[2] = tested on: Mycosphaerella graminicola; format: cell-based
[3] = tested on: Ustilago nuda; format: cell-based
[4] = biological target: T1, yeast reductoisomerase (Saccharomyces cerevisiae, UniProt P06168); test: Kinetics of inhibition of the yeast reductoisomerase (NADPH absorbance at 340 nm); format: biochemical; details: for mechanism of inhibition with respect to the AHB substrate: 1/m3 linear in AHB concentration, enzyme 110 nM; for k0, inhibitor/enzyme association constant: yeast reductoisomerase 110 nM, 25° C., pH 7.5, AHB varied
Description: FIGS. 7A and 7B: Kinetics of inhibition of the yeast reductoisomerase in the presence of the inhibitors dimethylphosphinoyl-2-hydroxyacetate [A] and N-hydroxy-N-isopropyloxamate [B]. The enzyme activity measurements are carried out at 25° C. in 1 ml of the following reaction medium: 10 mM MgCl2, 250 μM NADPH, 0.48 mM AHB in 50 mM sodium Hepes buffer, pH 7.5, and in the presence of enzyme 110 nM.
The reactions are initiated by simultaneously adding varying amounts of inhibitors dimethylphosphinoyl-2-hydroxyacetate [A] and N-hydroxy-N-isopropyloxamate [B] (from 2 μM to 30 μM) to the reaction medium. The curves are plotted according to the equation (1), which makes it possible to determine the values for Kobs, the apparent rate of formation of the enzyme-inhibitor complex.
FIGS. 8A and 8B: Kinetics of inhibition of the yeast reductoisomerase in the presence of the inhibitors dimethylphosphinoyl-2-hydroxyacetate [A] and N-hydroxy-N-isopropyloxamate [B]. The enzyme activity measurements are carried out at 25° C. in 1 ml of the following reaction medium: 10 mM MgCl2, 250 μM NADPH, 0.48 mM AHB in 50 mM sodium Hepes buffer, pH 7.5, and in the presence of enzyme at 110 nM.
The reactions are initiated by simultaneously adding varying amounts of inhibitors [A] and [B] (from 2 μM to 50 μM) to the reaction medium.
FIGS. 9A and 9B: Determination of the association constant k0 for the dimethylphosphinoyl-2-hydroxyacetate [A] and for the N-hydroxy-N-isopropyloxamate [B] on the yeast reductoisomerase using the representation 1/Kobs as a function of the concentration of substrate AHB. The enzyme activity measurements are carried out at 25° C. in 1 ml of the following reaction medium: 10 mM MgCl2, 250 μM NADPH, from 125 μM to 2.375 mM AHB, and in 50 mM sodium Hepes buffer, pH 7.5, and in the presence of enzyme at 110 nM. The reactions are initiated by simultaneously adding varying amounts of substrate AHB (from 125 μM to 2.375 mM) and the inhibitors [A] (10 μM) and [B] (15 μM) to the reaction medium.
The curves are plotted according to the equation (3), which makes it possible to determine the values for k0, the rate of association of the inhibitor with the enzyme.
The effect of the inhibitors N-hydroxy-N-isopropyloxamate and dimethylphosphinoyl-2-hydroxyacetate on the yeast reductoisomerase was followed over time by measuring the decrease in absorbence of NADPH at 340 nm, in a spectrophotometer. […]
Equation (1): OD340=m1+(m2−m1).e^(−m3.t) where the parameters are as follows: • OD340 is the optical density measured on a spectrophotometer at 340 nm at time “t” • m1 the optical density when “t” tends toward infinity • m2 the initial optical density • m3 the product of the concentration of inhibitor multiplied by the apparent disappearance constant for NADPH. […]

[5] = tested on: Magnaporthe grisea strain P1.2; format: cell-based; details: for mean percentage of growth of the M. grisea fungus: 5th day, control = 100%
[6] = tested on: Pythium ultimum; format: cell-based
[7] = tested on: M. grisea spores; format: cell-based, Magnaporthe grisea
[8] = biological target: T1, yeast reductoisomerase; test: Stoichiometry of binding of the inhibitors to the yeast reductoisomerase; format: biochemical; details: for stoichiometry of binding of the inhibitor to the yeast reductoisomerase: 0.1 nmol inhibitor completely inhibits 0.1 nmol enzyme; for type of inhibition (reversibility): yeast reductoisomerase
Description: FIGS. 6A and 6B: Stoichiometry for binding of the inhibitors dimethylphosphinoyl-2-hydroxyacetate and N-hydroxy-N-isopropyloxamate to the yeast reductoisomerase. The inhibitors Hoe 704 [A] and IpOHA [B] (0.1 nmol) are incubated with varying amounts of enzyme (0 to 0.4 nmol) for 20 minutes at 25° C. with 25 nmol of NADPH and 0.25 μmol of Mg^2+ in a volume of 10 μl. The enzyme activity measurements are carried out at 25° C. in 1 ml of the following reaction medium: 10 mM MgCl2, 250 μM NADPH, 0.48 mM AHB, and in 50 mM sodium Hepes buffer, pH 7.5.
The kinetic parameters for the yeast reductoisomerase were determined by following the evolution of the enzyme reaction in the spectrophotometer under saturating conditions with respect to magnesium, to NADPH and to AHB or AL substrate. All the enzyme activity measurements were carried out in a quartz cuvette with an optical path of 1 cm, containing sodium Hepes buffer (50 mM, pH 7.5), 10 mM MgCl2, 250 μM NADPH, in a final volume of 1 ml, at 25° C. The enzyme reaction was initiated by adding 0.48 mM of AHB or of AL. The evolution of this reaction was followed by virtue of the decrease in absorption of NADPH at 340 nm.
The study of the stoichiometry of binding of the inhibitors N-hydroxy-N-isopropyl-oxamate and dimethylphosphinoyl-2-hydroxyacetate was carried out by incubating varying amounts of enzyme (from 0.1 to 0.4 nmol) with a constant amount of inhibitor for 20 minutes, with 25 nmol of NADPH and 0.25 μmol of MgCl2, in a final volume of 10 μl. The reactions are initiated by adding 0.48 mM AHB in 50 mM sodium Hepes buffer, pH 7.5, containing 10 mM MgCl2.
In the presence of 0.1 nmol of dimethylphosphinoyl-2-hydroxyacetate, an enzyme activity is detected only with amounts of enzyme greater than […]. Similarly, in the presence of 0.1 nmol of N-hydroxy-N-isopropyloxamate, an enzyme activity is detected only for amounts of enzyme greater than 0.1 nmol (FIG. 6). In addition, for these two inhibitors, when the enzyme is in excess relative to the inhibitor in the reaction medium, the enzyme activities increase in parallel with those of the control without inhibitor. […] In fact, in the case of irreversible inhibition, in the presence of a low amount of enzyme, all the enzyme complexes with the inhibitor. The enzyme activity is then zero, since there is no longer any free enzyme in the reaction medium. When the amount of enzyme present in the reaction medium is greater than the amount of inhibitor, the free enzyme in excess in the medium then behaves like the control without inhibitor (straight line parallel to the control).

[9] = biological target: plant reductoisomerase (Spinacia oleracea, UniProt Q01292); details: cited from earlier work
[10] = tested on: Botrytis cinerea; format: cell-based
[11] = Magnaporthe grisea, liquid minimum medium (Table 5; text gives concentrations in μM)

T1 sequence (P06168 48-395): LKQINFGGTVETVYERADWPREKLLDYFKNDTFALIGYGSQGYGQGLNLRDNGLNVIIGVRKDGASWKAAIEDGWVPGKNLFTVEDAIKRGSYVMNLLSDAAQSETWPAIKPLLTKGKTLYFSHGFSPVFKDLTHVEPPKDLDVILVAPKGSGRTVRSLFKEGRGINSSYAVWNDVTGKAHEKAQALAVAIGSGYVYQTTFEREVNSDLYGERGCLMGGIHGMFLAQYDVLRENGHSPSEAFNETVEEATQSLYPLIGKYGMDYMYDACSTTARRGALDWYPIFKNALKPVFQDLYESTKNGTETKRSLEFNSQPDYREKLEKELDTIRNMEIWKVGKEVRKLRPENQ
plant reductoisomerase, sequence (Q01292 73-595): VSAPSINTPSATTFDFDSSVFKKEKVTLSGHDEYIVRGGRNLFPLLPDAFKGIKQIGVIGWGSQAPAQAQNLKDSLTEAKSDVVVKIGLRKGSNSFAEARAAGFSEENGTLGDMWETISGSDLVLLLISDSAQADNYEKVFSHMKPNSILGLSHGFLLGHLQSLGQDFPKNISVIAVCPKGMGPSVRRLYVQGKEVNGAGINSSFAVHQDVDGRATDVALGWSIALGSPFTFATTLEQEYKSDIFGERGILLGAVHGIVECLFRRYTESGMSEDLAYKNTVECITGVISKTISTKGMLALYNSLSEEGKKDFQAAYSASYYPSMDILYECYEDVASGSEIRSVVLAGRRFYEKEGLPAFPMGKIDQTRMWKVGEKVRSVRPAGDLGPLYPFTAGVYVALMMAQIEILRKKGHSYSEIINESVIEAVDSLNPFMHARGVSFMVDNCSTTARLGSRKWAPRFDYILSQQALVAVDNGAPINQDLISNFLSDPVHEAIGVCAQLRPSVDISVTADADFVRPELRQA

CC(C)N(O)C(=O)C(=O)O [N-hydroxy-N-isopropyloxamate]
toxicity when minimum medium is supplemented with isoleucine, leucine and valine [1]: lifted | ID50: concentration which inhibits fungal growth by 50% [2]: 1 | ID80: concentration which inhibits fungal growth by 80% [2]: 3 | Level of sensitivity to IpOHA [2]: Sensitive | concentration from which growth is inhibited [2]: ≥ 0.3 µM | ID50: concentration which inhibits fungal growth by 50% [3]: 3 | ID80: concentration which inhibits fungal growth by 80% [3]: 30 | IpOHA concentrations for which inhibition is lifted by isoleucine, leucine and valine [3]: less than 30 μM | Level of sensitivity to IpOHA [3]: Moderately sensitive | concentration from which growth is inhibited [3]: ≥ 10 µM | mechanism of inhibition with respect to the AHB substrate [4]: competitive | k0, inhibitor/enzyme association constant [4]: 12 433 M^−1.s^−1 | mean percentage of growth of the M. grisea fungus ([5]; 0.03 μM inhibitor, MM + leucine, valine, isoleucine 0.3 mM (MM + ILV)): 77.5% | mean percentage of growth of the M. grisea fungus ([5]; 0.03 μM inhibitor, minimum medium (MM)): 92% | mean percentage of growth of the M. grisea fungus ([5]; 0.1 μM inhibitor, MM + ILV 0.3 mM): 83.5% | mean percentage of growth of the M. grisea fungus ([5]; 0.1 μM inhibitor, minimum medium (MM)): 89% | mean percentage of growth of the M. grisea fungus ([5]; 0.3 μM inhibitor, MM + ILV 0.3 mM): 81% | mean percentage of growth of the M. grisea fungus ([5]; 0.3 μM inhibitor, minimum medium (MM)): 72% | mean percentage of growth of the M. grisea fungus ([5]; 1 μM inhibitor, MM + ILV 0.3 mM): 72.5% | mean percentage of growth of the M. grisea fungus ([5]; 1 μM inhibitor, minimum medium (MM)): 56% | mean percentage of growth of the M. grisea fungus ([5]; 3 μM inhibitor, MM + ILV 0.3 mM): 71.5% | mean percentage of growth of the M. grisea fungus ([5]; 3 μM inhibitor, minimum medium (MM)): 13% | toxicity on growth when minimum medium is supplemented with valine, leucine and isoleucine ([5]; ILV at 0.3 mM, whatever the inhibitor concentration): lifted | Level of sensitivity to IpOHA ([5]; Magnaporthe grisea): Sensitive | ID50: concentration which inhibits fungal growth by 50% [5, 11]: 1 | ID80: concentration which inhibits fungal growth by 80% [5, 11]: 3 | inhibition of fungal growth ([5]; inhibitor 0.3 to 1 μM, MM medium, from the 3rd day): approximately 50% | ID80 (concentration of inhibitor such that the inhibition in fungal growth is 80%) ([5]; minimum medium, 5th day of growth): 1000 nM | concentration from which inhibition of growth is observed ([5]; minimum medium, from the 3rd day of growth): ≥ 0.3 µM | ID50: concentration which inhibits fungal growth by 50% [6]: 10 | ID80: concentration which inhibits fungal growth by 80% [6]: 30 | Level of sensitivity to IpOHA [6]: Moderately sensitive | concentration from which growth is inhibited [6]: ≥ 10 µM | spore germination ([7]; 10 mM, in water or in minimum medium, at 24 and 72 hours): does not inhibit | spore germination ([7]; 1 and 3 μM, minimum medium, days 0 and 2): not blocked | stoichiometry of binding of the inhibitor to the yeast reductoisomerase [8]: 1 mol of inhibitor per mole of enzyme | amount of enzyme above which an enzyme activity is detected ([8]; 0.1 nmol inhibitor, 20 min preincubation with NADPH and Mg2+): greater than 0.1 nmol | type of inhibition (reversibility) [8]: irreversible inhibitors | k0, inhibitor/enzyme association constant [9]: 1900 M⁻¹ s⁻¹ | Level of sensitivity to IpOHA [10]: Resistant | effect on growth at the highest concentration used [10]: not affected

CP(C)(=O)C(O)C(=O)O (centres unmarked) [dimethylphosphinoyl-2-hydroxyacetate]
mechanism of inhibition with respect to the AHB substrate [4]: competitive | k0, inhibitor/enzyme association constant [4]: 7721 M⁻¹ s⁻¹ | decrease in growth compared to control without inhibitor ([5]; inhibitor at 2 mM, MM medium, 6th and 7th day of growth): 50% | stoichiometry of binding of the inhibitor to the yeast reductoisomerase [8]: 1 mol of inhibitor per mole of enzyme | type of inhibition (reversibility) [8]: irreversible inhibitors | k0, inhibitor/enzyme association constant [9]: 22 000 M^−1.s^−1
